Test results as given in patent US20050118228A1, “Compositions and methods for augmentation or repair of intervertebral discs” (priority 2003, published 2005).

Test system: Adult human keratinocytes
Test: Telomerase expression (TRAP assay kit) in treated keratinocytes
Type: cell-based
Settings: keratinocytes exposed to both agents in sequence: 10-25 μM 5-aza-2′-deoxycytidine for 5 days and 100-250 ng/ml trichostatin for 1 day; versus cells not exposed
Description: Adult human keratinocytes are obtained form Clonetics (San Diego, Calif.) and grown in Keratinocyte Growth Media in 5-10% CO2 at 37 degree C. according to the instructions “Keratinocyte System Instructions” BioWhittaker Catalogue number AA-1000. When the adult keratinocytes are about 40-80% confluent, 10-25 μM 5-aza-2′-deoxycytidine (Sigma, St Louis, Mo.) is added to the culture. After 4 days of incubation with 5-aza-2′-deoxycytidine, 100-250 ng/ml trichostatin (Sigma, St Louis, Mo.) is added to the culture. The culture is incubated for an additional day and sampled for telomerase activity.
Keratinocytes exposed to 10-25 μM 5-aza-2′-deoxycytidine for 5 days and 100-250 ng/ml trichostatin for 1 day and cells not exposed to these agents are assayed for the expression of telomerase (using a commercially available TRAP assay kit). These cells are assayed along side positive controls (HeLa and NH-12 cells) and negative controls (human foreskin fibroblasts and heated HN-12 cell extracts). Telomerase activity is measured by phosphoimaging telomeric products resolved on 12.5% […]. Telometric ladders indicative of telomerase activity, consistent with the presence of stem cells is observed in the positive controls and in the keratinocytes exposed to 10-25 μM 5-aza-2′-deoxycytidine for 5 days and 100-250 ng/ml trichostatin for 1 day.

Row | Structure (SMILES) | Telomerase activity (telomeric ladders)
1 | Nc1ncn([C@H]2C[C@H](O)[C@@H](CO)O2)c(=O)n1 [5-aza-2′-deoxycytidine] | increased telomerase activity
2 | CC(/C=C/C(=O)NO)=C\[C@@H](C)C(=O)c1ccc(N(C)C)cc1 [trichostatin] | increased telomerase activity
